Reference: the supplement of paper PMC10883282
± gives the standard deviation of the averaged measurements.

System: SW684
Test: relative viability vs DMSO control (72 h) (fraction); higher = more viable cells
Method in brief: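 Relative viability is percent growth read by ATPLite and averaged over up to triplicate wells. Sarcoma cells were seeded in 384-well plates to reach 80–90% confluence and given 2.5 µl of serially diluted compound after 24 h, from source plates of 10 mM to 0.0002 mM. Incubation lasted 72 h at 37 °C, 5% CO2, with 0.1% DMSO vehicle and a 5 µM positive control, and the data were rescaled so 1 equals full and 0 equals none.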

Row | Structure (SMILES) | relative viability (0.00017 µM) | relative viability (0.00051 µM) | relative viability (0.00152 µM) | relative viability (0.00457 µM) | relative viability (0.01372 µM) | relative viability (0.04115 µM) | relative viability (0.1235 µM) | relative viability (0.3704 µM) | relative viability (1.111 µM) | relative viability (3.333 µM) | relative viability (10 µM)
1 | C=CC(=O)Nc1cccc(Oc2nc(Nc3ccc(N4CCN(C)CC4)cc3)nc3ccsc23)c1 [Olmutinib] | 1.07 ± 0.043 | 1.14 ± 0.069 | 1.08 ± 0.029 | 1.15 ± 0.061 | 1.05 ± 0.014 | 1.09 ± 0.025 | 1.149 ± 0.0031 | 1.14 ± 0.073 | 1.07 ± 0.049 | 0.849 ± 0.032 | 0.0282 ± 0.0066
2 | COc1cc2c(Oc3ccc4[nH]c(C)cc4c3F)ncnc2cc1OCCCN1CCCC1 [Cediranib] | 1.18 ± 0.024 | 1.17 ± 0.076 | 1.17 ± 0.03 | 1.17 ± 0.059 | 1.16 ± 0.033 | 1.169 ± 0.011 | 1.15 ± 0.029 | 1.19 ± 0.033 | 1.2 ± 0.035 | 1.19 ± 0.039 | 0.987 ± 0.058
3 | Cc1cnc(Nc2ccc(OCCN3CCCC3)cc2)nc1Nc1cccc(S(=O)(=O)NC(C)(C)C)c1 [Fedratinib] | 1.12 ± 0.04 | 1.16 ± 0.04 | 1.17 ± 0.081 | 1.16 ± 0.021 | 1.15 ± 0.047 | 1.13 ± 0.038 | 1.1 ± 0.029 | 1 ± 0.023 | 0.666 ± 0.04 | 0.399 ± 0.018 | 0.0027
4 | CCCS(=O)(=O)Nc1ccc(F)c(C(=O)c2c[nH]c3ncc(-c4ccc(Cl)cc4)cc23)c1F [Vemurafenib] | 1.18 ± 0.038 | 1.26 ± 0.02 | 1.18 ± 0.073 | 1.21 ± 0.054 | 1.205 ± 0.0029 | 1.18 ± 0.032 | 1.207 ± 0.0074 | 1.21 ± 0.034 | 1.21 ± 0.035 | 1.04 ± 0.033 | 0.804 ± 0.17
5 | Cn1cnc2c(F)c(Nc3ccc(Br)cc3F)c(C(=O)NOCCO)cc21 [Binimetinib] | 1.12 ± 0.038 | 1.17 ± 0.046 | 1.11 ± 0.03 | 1.11 ± 0.028 | 1.14 ± 0.037 | 1.12 ± 0.069 | 1.06 ± 0.058 | 1.01 ± 0.071 | 0.953 ± 0.035 | 0.847 ± 0.035 | 0.642 ± 0.018
6 | COc1c(OCCCN2CCOCC2)ccc2c1N=C(NC(=O)c1cnc(N)nc1)N1CCN=C21 [Copanlisib] | 1.09 ± 0.061 | 1.12 ± 0.062 | 1 ± 0.026 | 0.7483 ± 0.0065 | 0.631 ± 0.025 | 0.516 ± 0.018 | 0.469 ± 0.011 | 0.435 ± 0.018 | 0.425 ± 0.017 | 0.403 ± 0.0053 | 0.368 ± 0.002
7 | COc1cc2nccc(Oc3ccc(NC(=O)Nc4cc(C)on4)c(Cl)c3)c2cc1OC [Tivozanib] | 1.17 ± 0.059 | 1.16 ± 0.028 | 1.19 ± 0.096 | 1.19 ± 0.054 | 1.16 ± 0.042 | 1.122 ± 0.0093 | 1.15 ± 0.027 | 1.23 ± 0.066 | 1.25 ± 0.092 | 1.12 ± 0.054 | 0.918 ± 0.037
8 | CC[C@H](Nc1ncnc2[nH]cnc12)c1nc2cccc(F)c2c(=O)n1-c1ccccc1 [Idelalisib] | 1.18 ± 0.064 | 1.22 ± 0.025 | 1.18 ± 0.07 | 1.23 ± 0.045 | 1.02 ± 0.08 | 0.946 ± 0.023 | 0.875 ± 0.049 | 0.772 ± 0.049 | 0.658 ± 0.053 | 0.6 ± 0.014 | 0.513 ± 0.017
9 | Cc1cc(C)c(/C=C2\C(=O)Nc3ccccc32)[nH]1 [Semaxanib] | 0.981 ± 0.022 | 0.962 ± 0.03 | 0.994 ± 0.026 | 0.935 ± 0.018 | 0.917 ± 0.02 | 0.8931 ± 0.0076 | 0.901 ± 0.046 | 0.923 ± 0.029 | 0.932 ± 0.06 | 0.902 ± 0.072 | 0.812 ± 0.017
10 | Cc1ccc(F)c(NC(=O)Nc2ccc(-c3cccc4[nH]nc(N)c34)cc2)c1 [Linifanib] | 1.11 ± 0.014 | 1.14 ± 0.02 | 1.13 ± 0.039 | 1.18 ± 0.03 | 1.17 ± 0.023 | 1.18 ± 0.04 | 1.15 ± 0.027 | 1.139 ± 0.011 | 1.16 ± 0.045 | 1.15 ± 0.049 | 1.12 ± 0.041
11 | COCc1c(-c2cc3cc(C)cc(OC)c3s2)c2c(N)ncnn2c1CN1CCNC(=O)C1 [Rogaratinib] | 1.11 ± 0.051 | 1.16 ± 0.028 | 1.16 ± 0.088 | 1.16 ± 0.043 | 1.15 ± 0.03 | 1.15 ± 0.018 | 1.12 ± 0.082 | 1.14 ± 0.061 | 1.09 ± 0.018 | 1.04 ± 0.019 | 0.898 ± 0.038
12 | N#CC[C@H](C1CCCC1)n1cc(-c2ncnc3[nH]ccc23)cn1 [Ruxolitinib] | 0.985 ± 0.022 | 1.062 ± 0.005 | 1.03 ± 0.017 | 1.04 ± 0.072 | 0.991 ± 0.028 | 0.976 ± 0.035 | 0.978 ± 0.023 | 0.9518 ± 0.0033 | 0.912 ± 0.032 | 0.915 ± 0.036 | 0.777 ± 0.012
13 | CCN1CCN(Cc2ccc(Nc3ncc(F)c(-c4cc(F)c5nc(C)n(C(C)C)c5c4)n3)nc2)CC1 [Abemaciclib] | 1.13 ± 0.036 | 1.16 ± 0.06 | 1.13 ± 0.048 | 1.12 ± 0.035 | 1.1 ± 0.051 | 1.11 ± 0.051 | 1.04 ± 0.037 | 0.894 ± 0.059 | 0.781 ± 0.028 | 0.832 ± 0.027 | 0.825 ± 0.035
14 | CNC(=O)c1cc(Oc2ccc(NC(=O)Nc3ccc(Cl)c(C(F)(F)F)c3)c(F)c2)ccn1 [Regorafenib] | 1.194 ± 0.0028 | 1.23 ± 0.02 | 1.22 ± 0.013 | 1.24 ± 0.049 | 1.21 ± 0.036 | 1.15 ± 0.031 | 1.21 ± 0.049 | 1.24 ± 0.036 | 1.32 ± 0.054 | 1.3 ± 0.03 | 0.772 ± 0.016
15 | Nc1cc(C(F)(F)F)c(-c2cc(N3CCOCC3)nc(N3CCOCC3)n2)cn1 [Buparlisib] | 1.12 ± 0.044 | 1.14 ± 0.075 | 1.11 ± 0.047 | 1.11 ± 0.04 | 1.08 ± 0.049 | 1.09 ± 0.077 | 1.03 ± 0.016 | 0.9 ± 0.055 | 0.599 ± 0.041 | 0.38 ± 0.022 | 0.282 ± 0.0065
16 | CC(C)NC(=O)C1CCC(n2c(NC(=O)c3ccc(F)cc3)nc3ccc(CN4CCC(C(C)(C)O)CC4)cc32)CC1 (stereo not drawn) [Belizatinib] | 1.169 ± 0.011 | 1.17 ± 0.071 | 1.19 ± 0.024 | 1.21 ± 0.098 | 1.21 ± 0.11 | 1.17 ± 0.056 | 1.16 ± 0.012 | 1.18 ± 0.03 | 1.09 ± 0.048 | 0.798 ± 0.034 | 0.381 ± 0.056
17 | CC1(C)CNc2cc(NC(=O)c3cccnc3NCc3ccncc3)ccc21 [Motesanib] | 1.04 ± 0.033 | 0.999 ± 0.073 | 0.999 ± 0.065 | 1.01 ± 0.084 | 0.978 ± 0.016 | 0.9719 ± 0.0041 | 0.99 ± 0.079 | 0.94 ± 0.016 | 0.98 ± 0.064 | 1.02 ± 0.043 | 0.859 ± 0.039
18 | CC(=O)Nc1cccc(-n2c(=O)n(C3CC3)c(=O)c3c(Nc4ccc(I)cc4F)n(C)c(=O)c(C)c32)c1 [Trametinib] | 1.16 ± 0.02 | 1.17 ± 0.045 | 1.19 ± 0.04 | 1.14 ± 0.035 | 1.05 ± 0.0092 | 0.859 ± 0.018 | 0.615 ± 0.0083 | 0.552 ± 0.011 | 0.511 ± 0.017 | 0.517 ± 0.0077 | 0.4614 ± 0.002
